Measured values reported in patent US10709725B2, “Gemcitabine ProTide hypoxia-activated prodrug and application thereof” (JIANGSU QIANZHIKANG BIOLOGICAL MEDICINE SCIENCE AND …, priority 2016, dated 2020).
≈ marks a conversion by molar mass, not a printed value. Read-outs that look alike come from different tables or passages of the source.

Legend:
Assay type in all cases: cell-based
tumor cells = assay: In-vitro inhibition of tumor cell proliferation, hypoxic versus normal oxygen; settings: in words, see Table 1
Experimental: (§1) Take tumor cells in the logarithmic growth phase, add 0.25% pancreatin for digestion for 3 min, use RPMI-1640 containing 10% calf serum for suspension culture of the cells, count the number, adjust cell concentration to 1×10^5 cells/mL, inoculate to a Top-count dedicated 96-well cell culture plate at 100 μL/well, and incubate at 37° C. and 5% CO2 for 24 h; divide the cells into experimental groups and control groups, and add a target compound solution (0.001 μg/mL, 0.01 μg/mL, 0.1 μg/mL, 1 μg/mL, 10 μg/mL) to the experimental groups, wherein each concentration corresponded to four wells, and the volume of each well was made up to 200 μL; after adding samples, continue to culture for 72 h for each group (for hypoxic groups, continue to culture for 72 h at 5% CO2, 95% N2), add ^3H-TdR 3×10^5Bq to each group before culture ended, and measure the CPM (count per minute) value of each well with Top-count; and calculate the median inhibition concentration (IC50) of drugs in each experimental group on cell proliferation.

[1] = test system: Human pancreatic adenocarcinoma cell BxPC-3 cell; assay: In-vitro inhibition of tumor cell proliferation (3H-TdR, 72 h), normal oxygen and hypoxic; design: Median inhibition concentration IC50 normal oxygen (air) / Median inhibition concentration IC50 hypoxic (nitrogen): unit not given here; settings: for IC50: Homo sapiens
[2] = test system: Human liver cancer HepG2 cell; assay: as above; settings: HepG2, 72 h
Experimental: as §1

[3] = test system: Human lung adenocarcinoma cell A549; assay: as above; settings: A549, 72 h
Experimental: as §1

[4] = BxPC-3, 72 h, hypoxic (5% CO2, 95% N2)
[5] = BxPC-3, 72 h, normal oxygen (air)
[6] = BXPC-3, 72 h, hypoxic (5% CO2, 95% N2), read-out: Median inhibition concentration IC50 hypoxic (nitrogen)
[7] = BXPC-3, 72 h, normal oxygen (air), read-out: Median inhibition concentration IC50 normal oxygen (air)
[8] = hypoxic (5% CO2, 95% N2), read-out: Median inhibition concentration IC50 hypoxic (nitrogen)
[9] = normal oxygen (air), read-out: Median inhibition concentration IC50 normal oxygen (air)

Question: `C[C@H](NP(=O)(OCc1ccccc1Cl)OC[C@H]1O[C@@H](n2ccc(N)nc2=O)C(F)(F)C1O)C(=O)OC(C)(C)c1ccc([N+](=O)[O-])s1` (stereo partly drawn) [Compound 024] was tested. Which “Cytotoxicity under a hypoxic condition compared with that under a normal oxygen condition” value (tumor cells) did it give?
Answer: differed slightly

Question: And the “Median inhibition concentration IC50 hypoxic (nitrogen)” value [1, 4]?
Answer: >10

Question: And the “Median inhibition concentration IC50 normal oxygen (air)” value [1, 5]?
Answer: >10

Question: Which results are given for `COC(=O)[C@H](C)NP(=O)(OC[C@H]1O[C@@H](n2cnc(N)nc2=O)C(F)(F)C1O)OC(C)c1ccc([N+](=O)[O-])cc1` (stereo partly drawn) [Compound 014]?
Answer: Median inhibition concentration IC50 hypoxic (nitrogen) [1, 4]: 0.7; Median inhibition concentration IC50 normal oxygen (air) [1, 5]: > 10

Question: How did the IC50 [1, 6] turn out when `Cc1ccccc1COP(=O)(N[C@@H](C)C(=O)OC(C)(C)c1ccc([N+](=O)[O-])s1)OC[C@H]1O[C@@H](n2ccc(N)nc2=O)C(F)(F)C1O` (stereo partly drawn) [Compound 019] was run?
Answer: 0.8 µg/mL (≈ 1.16 µM)

Question: What about the IC50 [1, 7] of the same compound?
Answer: > 10 µg/mL

Question: For `CC(OP(=O)(N[C@@H](C)C(=O)OC1CCCCC1)OC[C@H]1O[C@@H](n2cnc(N)nc2=O)C(F)(F)C1O)c1ccc([N+](=O)[O-])cc1` (stereo partly drawn) [Compound 012], which IC50 [2, 8] is on record?
Answer: 0.5 µg/mL (≈ 0.773 µM)

Question: And the IC50 [2, 9]?
Answer: > 10 µg/mL

Question: What about the IC50 [1, 6] of the same compound?
Answer: 0.5 µg/mL (≈ 0.773 µM)

Question: What about the IC50 [1, 7] of the same compound?
Answer: > 10 µg/mL

Question: For `CC(OC(=O)[C@H](C)NP(=O)(OC[C@H]1O[C@@H](n2ccc(N)nc2=O)C(F)(F)C1O)Oc1ccccc1)c1ccc([N+](=O)[O-])s1` (stereo partly drawn) [Compound 005], which IC50 [3, 8] is on record?
Answer: 0.1 µg/mL (≈ 0.155 µM)

Question: What about the IC50 [3, 9] of the same compound?
Answer: 2 µg/mL (≈ 3.1 µM)

Question: How did the IC50 [2, 8] turn out when `CC(OC(=O)Nc1ccn([C@@H]2O[C@H](COP(=O)(N[C@@H](C)C(=O)OCc3ccccc3)Oc3ccccc3)C(O)C2(F)F)c(=O)n1)c1ccc([N+](=O)[O-])cc1` (stereo partly drawn) [Compound 022] was run?
Answer: 0.3 µg/mL (≈ 0.388 µM)

Question: What about the IC50 [2, 9] of the same compound?
Answer: 0.4 µg/mL (≈ 0.517 µM)

Question: What about the IC50 [3, 8] of the same compound?
Answer: 0.01 µg/mL (≈ 0.0129 µM)

Question: And the IC50 [3, 9]?
Answer: 0.01 µg/mL (≈ 0.0129 µM)

Question: And the “Cytotoxicity under a hypoxic condition compared with that under a normal oxygen condition” value (tumor cells)?
Answer: not significantly different

Question: What about the IC50 ([1]; BXPC-3, 72 h, read-out: Median inhibition concentration IC50 hypoxic (nitrogen)) of the same compound?
Answer: 0.1 µg/mL (≈ 0.129 µM)

Question: What about the IC50 ([1]; BXPC-3, 72 h, read-out: Median inhibition concentration IC50 normal oxygen (air)) of the same compound?
Answer: 0.1 µg/mL (≈ 0.129 µM)

Question: What does the source list for `COc1ccc(COP(=O)(N[C@@H](C)C(=O)OC(C)c2ccc([N+](=O)[O-])o2)OC[C@H]2O[C@@H](n3ccc(N)nc3=O)C(F)(F)C2O)cc1` (stereo partly drawn) [Compound 018]?
Answer: IC50 [1, 6]: 0.5 µg/mL (≈ 0.742 µM); IC50 [1, 7]: > 10 µg/mL

Question: `CCOC(=O)[C@H](C)NP(=O)(OCc1cnc([N+](=O)[O-])n1C)OC[C@H]1O[C@@H](n2cnc(N)nc2=O)C(F)(F)C1O` (stereo partly drawn) [Compound 017] was tested. Which IC50 [1, 6] did it give?
Answer: 0.8 µg/mL (≈ 1.37 µM)

Question: And the IC50 [1, 7]?
Answer: > 10 µg/mL

Question: With `CCCCOC(=O)[C@H](C)NP(=O)(OC[C@H]1O[C@@H](n2cnc(N)nc2=O)C(F)(F)C1O)OC(C)c1ccc([N+](=O)[O-])cc1` (stereo partly drawn) [Compound 010] as the compound, how does the IC50 [3, 8] read?
Answer: 0.2 µg/mL (≈ 0.322 µM)

Question: What about the IC50 [3, 9] of the same compound?
Answer: 2 µg/mL (≈ 3.22 µM)

Question: `C[C@H](NP(=O)(OCc1ccc([N+](=O)[O-])s1)OC[C@H]1O[C@@H](n2cnc(N)nc2=O)C(F)(F)C1O)C(=O)OC1CCCCC1` (stereo partly drawn) [Compound 013] was tested. Which IC50 [1, 6] did it give?
Answer: 0.8 µg/mL (≈ 1.25 µM)

Question: And the IC50 [1, 7]?
Answer: > 10 µg/mL

Question: Which IC50 [3, 8] does the source give for `CC(OP(=O)(N[C@@H](C)C(=O)OCc1ccccc1)OC[C@H]1O[C@@H](n2ccc(N)nc2=O)C(F)(F)C1O)c1ccc([N+](=O)[O-])cc1` (stereo partly drawn) [Compound 006] here?
Answer: 0.2 µg/mL (≈ 0.306 µM)

Question: What about the IC50 [3, 9] of the same compound?
Answer: 2 µg/mL (≈ 3.06 µM)

Question: What about the IC50 [1, 6] of the same compound?
Answer: 0.4 µg/mL (≈ 0.612 µM)

Question: And the IC50 [1, 7]?
Answer: > 10 µg/mL

Question: For `C[C@H](NP(=O)(OC[C@H]1O[C@@H](n2ccc(N)nc2=O)C(F)(F)C1O)Oc1ccccc1)C(=O)OC(C)(C)c1ccc([N+](=O)[O-])cc1` (stereo partly drawn) [Compound 002], which IC50 [2, 8] is on record?
Answer: 0.2 µg/mL (≈ 0.306 µM)

Question: And the IC50 [2, 9]?
Answer: > 10 µg/mL

Question: And the IC50 [3, 8]?
Answer: 0.1 µg/mL (≈ 0.153 µM)

Question: What about the IC50 [3, 9] of the same compound?
Answer: 2 µg/mL (≈ 3.06 µM)

Question: What about the IC50 ([1]; BxPC-3, 72 h, hypoxic (5% CO2, 95% N2), read-out: Median inhibition concentration IC50 hypoxic (nitrogen)) of the same compound?
Answer: 0.4 µg/mL (≈ 0.612 µM)

Question: What about the IC50 ([1]; BxPC-3, 72 h, normal oxygen (air), read-out: Median inhibition concentration IC50 normal oxygen (air)) of the same compound?
Answer: > 10 µg/mL

Question: `COC(=O)[C@H](C)NP(=O)(OC[C@H]1O[C@@H](n2cnc(N)nc2=O)C(F)(F)C1O)OC(C)c1ccc([N+](=O)[O-])cc1` (stereo partly drawn) [Compound 007] was tested. Which IC50 [2, 8] did it give?
Answer: 0.5 µg/mL (≈ 0.864 µM)

Question: And the IC50 [2, 9]?
Answer: > 10 µg/mL

Question: What about the IC50 [1, 6] of the same compound?
Answer: 0.4 µg/mL (≈ 0.692 µM)

Question: And the IC50 [1, 7]?
Answer: > 10 µg/mL
